Measured values as given in US7223865B2, “Chromogenic compounds, and use thereof as enzyme substrates” (Biomerieux, priority 2003, dated 2007).

Tests used:
Assay in all cases: L-alanine-aminopeptidase activity on gelled medium, Example 1
Format in all cases: cell-based
Details in all cases: 0.3 g/l, 24 hours
Staphylococcus aureus = system: Staphylococcus aureus
Protocol: (§1) A gelled medium comprising L-alanyl-9-(4-amino-styryl)acridine (hereinafter referred to as L-Ala-4-ASA) or L-alanyl-aminophenylacridine (hereinafter referred to as L-Ala-APA) is prepared as follows: 46.37 g of Columbia agar are added to 1 liter of distilled water and then autoclaved. This reaction medium is separated into two media of equivalent volume. Each of these media comprises, respectively: 0.3 g/l of L-Ala-4-ASA provided by means of the stock solution in DMSO, and 0.3 g/l of L-Ala-APA also provided by means of a stock solution in DMSO.
(§2) Microorganisms derived from the applicant's collection were seeded onto each of the media, by delimitation as three dials, using a suspension at 0.5 McFarland. The dishes were incubated at 37° C. for 24 hours. The colonies formed were examined visually after incubation for 24 hours. The color of these colonies was noted before and after addition of a drop of hydrochloric acid.

Enterococcus faecalis = system: Enterococcus faecalis
Protocol: as §1, §2

Proteus mirabilis = system: Proteus mirabilis
Protocol: as §1, §2

Enterobacter cloacae = system: Enterobacter cloacae
Protocol: as §1, §2

Candida albicans = system: Candida albicans
Protocol: as §1, §2

Streptococcus agalactiae = system: Streptococcus agalactiae
Protocol: as §1, §2

Escherichia coli = system: Escherichia coli
Protocol: as §1, §2

Citrobacter koseri = system: Citrobacter koseri
Protocol: as §1, §2

Listeria innocua = system: Listeria innocua
Protocol: as §1, §2

Klebsiella pneumoniae = system: Klebsiella pneumoniae
Protocol: as §1, §2

Compound | color of colonies (Staphylococcus aureus; with HCl) | color of colonies (Staphylococcus aureus; without HCl) | color of colonies (Enterococcus faecalis; with HCl) | color of colonies (Enterococcus faecalis; without HCl) | color of colonies (Proteus mirabilis; with HCl) | color of colonies (Proteus mirabilis; without HCl) | color of colonies (Enterobacter cloacae; with HCl) | color of colonies (Enterobacter cloacae; without HCl) | color of colonies (Candida albicans; with HCl) | color of colonies (Candida albicans; without HCl) | color of colonies (Streptococcus agalactiae; with HCl) | color of colonies (Streptococcus agalactiae; without HCl) | color of colonies (Escherichia coli; with HCl) | color of colonies (Escherichia coli; without HCl) | color of colonies (Citrobacter koseri; with HCl) | color of colonies (Citrobacter koseri; without HCl) | color of colonies (Listeria innocua; with HCl) | color of colonies (Listeria innocua; without HCl) | color of colonies (Klebsiella pneumoniae; with HCl) | color of colonies (Klebsiella pneumoniae; without HCl)
C[C@H](N)C(=O)Nc1ccc(-c2c3ccccc3nc3ccccc23)cc1 [L-Ala-APA] | colorless | colorless | colorless | colorless | very pale- | colorless | mauve | colorless | Colorless | colorless | colorless | colorless | pale mauve | colorless | mauve | colorless | colorless | colorless | mauve | colorless
C[C@H](N)C(=O)Nc1ccc(C=Cc2c3ccccc3nc3ccccc23)cc1 [L-Ala-4-ASA, L-alanyl-9-(4-aminostyryl)acridine] | colorless | colorless | colorless | colorless | gray-mauve | colorless | gray-mauve | colorless | colorless | colorless | colorless | colorless | gray-mauve | colorless | gray-mauve | colorless | colorless | colorless | gray-mauve | colorless
